Measured values published in US20230084927A1, “GLUCOSE UPTAKE INHIBITORS AND USES THEREOF” (METABOMED LTD., priority 2019, published 2023).
Like-named read-outs stand apart in the source and are kept apart here.

Assays:
SDH-WT cells = test: Cellular / differential toxicity assay (CellTiter-Glo, 3 days); type: cell-based, murine; conditions: toxicity, SDH-WT cells, 3 days, CellTiter-Glo, read-out: EC50 (uM) SDH-WT
Method: (§1) Identification of compounds that target specifically SDH-deficient cells was done by screening a library of small-molecule by using a differential toxicity screen with SDHB-proficient vs. SDHB-deficient cells (the […] cells were described in Cardaci 2015).
(§2) Cells Used for the Differential Assays: SDH-WT; SDH-KO-HRAS
(§3) Cell Culture Conditions: • Medium: DMEM-F12 medium+1 mM Glutamine+3% FBS • Plates: 96 well plate—Black, clear flat bottom • Incubation time: 3 days • Compound concentration: 10 point dilution starting from 10 uM to 0.0065 uM or a lower range when needed. • Viability assay at the end of incubation: Celltiter-Glo (CTG) from Promega.
(§4) Protocol: • Day 1: Plate cells in 96 well plate together with the appropriate concentration of compound.
(§5) Incubate for 3 days at 37° C. in 5% CO2 tissue culture incubator. • Day 4: Check viability of cells by adding CTG reagent and read luminescence in plate reader
(§6) SDH-WT and SDH-KO cells were grown in DMEM F12 supplemented with 1 mM Glutamine+3% FBS were treated with different concentrations of the indicated compounds in FIG. 11. Cell viability was determined 72 hours later by CellTiter Glue reagent (Promega), the luminescence was measured with ClarioStar reader (BMG) and the EC50s were calculated by Prism.
as §6, with “compounds.” for “compounds in FIG. 11.”
(§7) The cells were grown in DMEM F12 supplemented with 1 mM Glutamine+3% FBS were treated with different concentrations of the indicated compounds. Cell viability was determined 72 hours later by CellTiter Glue reagent (Promega), the luminescence was measured with ClarioStar reader (BMG) and the EC50s were calculated by Prism. Murine SDHB-WT/KO, HRAS transformed isogenic pair (FIG. 12A); UOK269, Human Tumor-derived SDHB-deficient RCC in their WT counterpart with re-expression of SDHB (FIG. 12B); and ACHN, RCC cells, and their SDHB-KO (SDHB CRISPRed out) isogenic cells (FIG. 12C).

[1] = system: SDH-KO-HRAS cells (SDHB-deficient); test: as above; type: cell-based, murine; conditions: toxicity, SDH-KO cells, 3 days, CellTiter-Glo, read-out: EC50 (uM) SDH-KO-HTAS-C17
Method: as §1, §2, §3, §4, §5, §6
as §6, with “compounds.” for “compounds in FIG. 11.”
as §7

With `CC1(C)Cc2nc3sc4c(NCCc5ccc6[nH]cnc6c5)ncnc4c3c(C(=O)OCCCCCCCCCCCCCCCC(=O)O)c2CO1` [Compound 211] the EC50 (SDH-WT cells; Mus musculus, 72 h) was 3 to 10 µM and the EC50 ([1]; Mus musculus, 72 h) was 3 to 10 µM.
Work on `CC1(C)Cc2nc3sc4c(NCCc5ccc6[nH]cnc6c5)ncnc4c3c(C(=O)OCCCCCCCCCCCC(=O)O)c2CO1` [Compound 212] yielded an EC50 (SDH-WT cells; Mus musculus, 72 h) of 3 to 10 µM and an EC50 ([1]; Mus musculus, 72 h) of 3 to 10 µM.
`COCOCCOCCOCCOCc1c2c(nc3sc4c(NCCc5ccc6[nH]cnc6c5)ncnc4c13)CC(C)(C)OC2` [Compound 213] was tested, and the EC50 (SDH-WT cells; Mus musculus, 72 h) was greater than 10 µM and the EC50 ([1]; Mus musculus, 72 h) was 1 to 3 µM.
In the case of `COCCOCCOCCOCCOCCOCc1c2c(nc3sc4c(NCCc5ccc6[nH]cnc6c5)ncnc4c13)CC(C)(C)OC2` [Compound 214], the EC50 (SDH-WT cells; Mus musculus, 72 h) is reported as greater than 10 µM and the EC50 ([1]; Mus musculus, 72 h) is reported as 1 to 3 µM.
`CCCCCCNc1nc(C)nc2c1sc1nc3c(cc12)COC(C)(C)C3` [Compound 215] showed an EC50 (SDH-WT cells; Mus musculus, 72 h) greater than 10 µM and an EC50 ([1]; Mus musculus, 72 h) greater than 10 µM.
For `CCCCCCNc1ncnc2c1sc1nc3c(cc12)COC(C)(C)C3` [Compound 216], the EC50 (SDH-WT cells; Mus musculus, 72 h) was greater than 10 µM and the EC50 ([1]; Mus musculus, 72 h) was greater than 10 µM.
For `CCCCNc1ncnc2c1sc1nc3c(cc12)COC(C)(C)C3` [Compound 217], the EC50 (SDH-WT cells) was 3 to 10 µM and the EC50 [1] was 1 to 3 µM.
For `CCN(CC)CCNc1ncnc2c1sc1nc3c(cc12)COC(C)(C)C3` [Compound 218], the EC50 (SDH-WT cells; Mus musculus, 72 h) was greater than 10 µM and the EC50 ([1]; Mus musculus, 72 h) was greater than 10 µM.
`CCC(C)Nc1nc(C)nc2c1sc1nc3c(cc12)COC(C)(C)C3` (stereo not shown) [Compound 219] was tested, and the EC50 (SDH-WT cells; Mus musculus, 72 h) was greater than 10 µM and the EC50 ([1]; Mus musculus, 72 h) was 3 to 10 µM.
`Cc1nc(NCC(C)C)c2sc3nc4c(cc3c2n1)COC(C)(C)C4` [Compound 220] showed an EC50 (SDH-WT cells; Mus musculus, 72 h) greater than 10 µM and an EC50 ([1]; Mus musculus, 72 h) greater than 10 µM.
Compound `C=CCNc1ncnc2c1sc1nc3c(cc12)COC(C)(C)C3` [Compound 221] has an EC50 (SDH-WT cells; Mus musculus, 72 h) greater than 10 µM and an EC50 [1] greater than 10 µM.
`Cc1nc(NCCCO)c2sc3nc4c(cc3c2n1)COC(C)(C)C4` [Compound 222] showed an EC50 (SDH-WT cells; Mus musculus, 72 h) greater than 10 µM and an EC50 ([1]; Mus musculus, 72 h) greater than 10 µM.
Work on `Cc1nc(N2CCOCC2)c2sc3nc4c(cc3c2n1)COC(C)(C)C4` [Compound 223] yielded an EC50 (SDH-WT cells; Mus musculus, 72 h) greater than 10 µM and an EC50 ([1]; Mus musculus, 72 h) greater than 10 µM.
`CC(C)CNc1ncnc2c1sc1nc3c(cc12)COC(C)(C)C3` [Compound 224] showed an EC50 (SDH-WT cells; Mus musculus, 72 h) greater than 10 µM and an EC50 ([1]; Mus musculus, 72 h) greater than 10 µM.
`Cc1nc(NCCN(C)C)c2sc3nc4c(cc3c2n1)COC(C)(C)C4` [Compound 225] gave an EC50 (SDH-WT cells; Mus musculus, 72 h) greater than 10 µM and an EC50 ([1]; Mus musculus, 72 h) greater than 10 µM.
`Cc1nc(NCCCN(C)C)c2sc3nc4c(cc3c2n1)COC(C)(C)C4` [Compound 226] showed an EC50 (SDH-WT cells; Mus musculus, 72 h) greater than 10 µM and an EC50 ([1]; Mus musculus, 72 h) greater than 10 µM.
`CN(C)CCNc1ncnc2c1sc1nc3c(cc12)COC(C)(C)C3` [Compound 227] was tested, and the EC50 (SDH-WT cells; Mus musculus, 72 h) was greater than 10 µM and the EC50 ([1]; Mus musculus, 72 h) was greater than 10 µM.
With `CN(C)CCCNc1ncnc2c1sc1nc3c(cc12)COC(C)(C)C3` [Compound 228] the EC50 (SDH-WT cells; Mus musculus, 72 h) was greater than 10 µM and the EC50 ([1]; Mus musculus, 72 h) was greater than 10 µM.
`CCCCNc1nc(C)nc2c1sc1nc3c(cc12)COC(C)(C)C3` [Compound 229] showed an EC50 (SDH-WT cells; Mus musculus, 72 h) greater than 10 µM and an EC50 ([1]; Mus musculus, 72 h) of 3 to 10 µM.
`Cc1nc(NCCN2CCOCC2)c2sc3nc4c(cc3c2n1)COC(C)(C)C4` [Compound 230] showed an EC50 (SDH-WT cells; Mus musculus, 72 h) greater than 10 µM and an EC50 ([1]; Mus musculus, 72 h) greater than 10 µM.
`Cc1nc(NCC2CCCO2)c2sc3nc4c(cc3c2n1)COC(C)(C)C4` (stereo not shown) [Compound 231] gave an EC50 (SDH-WT cells; Mus musculus, 72 h) greater than 10 µM and an EC50 ([1]; Mus musculus, 72 h) greater than 10 µM.
With `CC1(C)Cc2nc3sc4c(NCc5ccco5)ncnc4c3cc2CO1` [Compound 232] the EC50 (SDH-WT cells; Mus musculus, 72 h) was greater than 10 µM and the EC50 ([1]; Mus musculus, 72 h) was greater than 10 µM.
Compound `Cc1nc(N2CCCCC2)c2sc3nc4c(cc3c2n1)COC(C)(C)C4` [Compound 233] has an EC50 (SDH-WT cells; Mus musculus, 72 h) greater than 10 µM and an EC50 ([1]; Mus musculus, 72 h) greater than 10 µM.
Compound `CCN(CC)CCNc1nc(C)nc2c1sc1nc3c(cc12)COC(C)(C)C3` [Compound 234] has an EC50 (SDH-WT cells; Mus musculus, 72 h) greater than 10 µM and an EC50 ([1]; Mus musculus, 72 h) greater than 10 µM.
With `Cc1nc(NCc2ccc(OC(C)C)cc2)c2sc3nc4c(cc3c2n1)COC(C)(C)C4` [Compound 235] the EC50 (SDH-WT cells; Mus musculus, 72 h) was greater than 10 µM and the EC50 ([1]; Mus musculus, 72 h) was greater than 10 µM.
In the case of `CC1CCC(C)N(c2ncnc3c2sc2nc4c(cc23)COC(C)(C)C4)C1` (stereo not shown) [Compound 236], the EC50 (SDH-WT cells; Mus musculus, 72 h) is reported as greater than 10 µM and the EC50 ([1]; Mus musculus, 72 h) is reported as greater than 10 µM.
Work on `Cc1nc(N)c2sc3nc4c(cc3c2n1)COC(C)(C)C4` [Compound 237] yielded an EC50 (SDH-WT cells; Mus musculus, 72 h) greater than 10 µM and an EC50 ([1]; Mus musculus, 72 h) of 3 to 10 µM.
`CC1(C)Cc2nc3sc4c(NCCCO)ncnc4c3cc2CO1` [Compound 238] showed an EC50 (SDH-WT cells; Mus musculus, 72 h) greater than 10 µM and an EC50 ([1]; Mus musculus, 72 h) greater than 10 µM.
`CC(C)CCNc1ncnc2c1sc1nc3c(cc12)COC(C)(C)C3` [Compound 239] showed an EC50 (SDH-WT cells; Mus musculus, 72 h) greater than 10 µM and an EC50 ([1]; Mus musculus, 72 h) greater than 10 µM.
